# Measured values published in patent USRE48077E1, “Methods of treating ototoxicity” (Anida Pharma Inc., priority 2013, dated 2020).
# Read-outs that look alike come from different tables or passages of the source.
# Assays:
# Format in all cases: cell-based, mouse
# iNOS = test: Immunofluorescence staining of stress and inflammatory markers: iNOS
# Procedure: (§1) The cultures were kept at 33° C. in an incubator with 10% CO2. Detection of stress and inflammatory markers in UB/OC-1 cells was performed by immunofluorescence staining. UB/OC-1 cells were first plated in a 12 well plate. […] After the treatment, the cells were fixed with 4% paraformaldehyde (Sigma, St. Louis, Mo.), followed by washing once with phosphate buffered saline (PBS). Coverslips were then incubated with solution A—5% donkey serum (Jackson Immuno Laboratories, West Grove, Pa.) and 0.5% Triton-X (Sigma, St. Louis, Mo.) in PBS for 30 min at room temperature. Double immunostaining for different markers NOX3, iNOS, TRPV1 or TNF-α (1:300 dilution) in solution A was performed overnight at 4° C. Secondary antibody mix was then added and incubated for 1 h at 37° C. After 3 washes with PBS and two washes with fresh distilled water the coverslips were mounted on glass slides using Vectashield mounting medium containing DAPI (Vector Laboratories, Inc. Burlingame, Calif.) for nuclear staining, before imaging under an LEICA confocal microscope (Buffalo Grove, Ill.).
# [1] = Cell survival by FITC-AnnexinV/propidium iodide apoptosis detection, flow cytometry; conditions: mouse, no cisplatin; for viability at 1 nM: NPD1 1 nM alone; for viability at 10 nM: NPD1 10 nM alone; for viability at 100 nM: NPD1 100 nM alone
# Procedure: (§2) The cultures were kept at 33° C. in an incubator with 10% CO2. Cell survival after NPD1 treatment was also analyzed in UB/OC-1 cells in the presence or absence of damage. Specifically, cell death via apoptosis was determined by using FITC-AnnexinV Apoptosis detection kit (BD Pharmingen, San Diego, Calif., USA) and quantified by flow cytometry. In brief, 3,500 UB/OC-1 cells per well were seeded into a 96-well plate. […] At the end of the treatment time, UB/OC-1 cells were washed once with phosphate buffered saline (PBS) and harvested in a 0.5% trypsin/EDTA solution at 37° C., centrifuged at 220×g for 5 min and then immediately resuspended in the physiological buffer provided in the kit. […] The results were quantified using the CellQuest software (BD Biosciences, San Jose, Calif.). Data are expressed as percent viable (non-apoptotic cells) with the number of cells seeded into each well used as 100%. Three independent experiments were performed.
# UB/OC-1 cells [2] = test: as above; conditions: for viability at 0.001 µM / viability at 0.01 µM / viability at 0.1 µM: Mus musculus
# Procedure: as §2
# TNFα = test: Immunofluorescence staining of stress and inflammatory markers: TNFα
# Procedure: as §1
# [3] = test system: reactive oxygen species (ROS) in UB/OC-1 cells; test: ROS generation by CellROX green staining, confocal imaging
# Procedure: The cultures were kept at 33° C. in an incubator with 10% CO2. UB/OC1 cells were cultured on glass coverslips in 12-well culture plates. […] The cells were then washed once with phosphate buffered saline (PBS), and fixed in 4% paraformaldehyde for 15 minutes. The coverslips were then mounted with DAPI containing Vectashield (Vector Labs, Burlingame, Calif.).
# UB/OC-1 cells [4] = test: Cell viability by MTS assay (CellTiter 96 AQueous One Solution Cell Proliferation Assay), with and without cisplatin-induced damage; conditions: 24 hours
# Procedure: In the examples described herein, UB/OC-1 cells, or immortalized organ of Corti cells derived from the mouse, were utilized to examine the activity of NPD1 in the context of ototoxic damage. […] The cultures were kept at 33° C. in an incubator with 10% CO2. […] In brief, 3,500 cells per well were seeded into a 96-well plate. […] NPD1 treatment of 1-100 nM concentrations was tested in 3 independent experiments. A cell proliferation assay was performed by using Cell-Titer 96® AQueous One Solution Cell Proliferation Assay Kit (Promega, Madison, Wis.), according to the manufacturer's instructions. After 24 hours, 20 μl of CellTiter 96 AQueous One Solution reagent was added to each well in 100 μl of total volume of media. Cells were incubated for 3 to 4 hours, and absorbance was recorded at 490 nm using an ELISA plate reader. The absorbance is directly proportional to the number of living cells and is expressed as a percent relative to vehicle-treated cells.
# NOX3 = test: Immunofluorescence staining of stress and inflammatory markers: NOX3
# Procedure: as §1
# TRPV-1 = test: Immunofluorescence staining of stress and inflammatory markers: TRPV-1
# Procedure: as §1
# [5] = NPD1 at 1 nM, 10 nM and 100 nM 30 minutes, then cisplatin 2.5 μM 24 hours
# [6] = average of three experiments, read-out: Cell Viability Avg.
# [7] = read-out: Set II Cell Viability
# [8] = read-out: Set III Cell Viability
# [9] = NPD1 (1, 10, 100 nM; particularly at 10 nM) 30 minutes, then cisplatin 2.5 μM 24 hours
# [10] = cisplatin only 2.5 μM, 24 hours
smiles,measurement,setting,value
"CC/C=C\C[C@H](O)\C=C/C=C/C=C/[C@H](O)C/C=C\C/C=C\CCC(=O)[O-].[Na+] [NPD1, Sodium (4Z,7Z,10R,11E,13E,15Z,17S,19Z)-10,17-dihydroxydocosa-4,7,11,13,15,19-hexaenoate]",iNOS expression (staining),iNOS; [5],significant decrease
same,viability at 1 nM,[1]; [6],96.8%
same,viability at 1 nM,[1]; read-out: Set I Cell Viability,96%
same,viability at 1 nM,[1]; [7],96%
same,viability at 1 nM,[1]; [8],98.5%
same,viability at 10 nM,[1]; [6],96.9%
same,viability at 10 nM,[1]; read-out: Set I Cell Viability,96%
same,viability at 10 nM,[1]; [7],97%
same,viability at 10 nM,[1]; [8],97.7%
same,viability at 100 nM,[1]; [6],96.2%
same,viability at 100 nM,[1]; read-out: Set I Cell Viability,91%
same,viability at 100 nM,[1]; [7],98%
same,viability at 100 nM,[1]; [8],99.5%
same,viability at 0.001 µM,"UB/OC-1 cells [2]; read-out: Cell Viability Avg., NPD1 1 nM, 30 minutes later cisplatin 20 μM for 24 h, average of three experiments",87.6%
same,viability at 0.01 µM,"UB/OC-1 cells [2]; read-out: Cell Viability Avg., NPD1 10 nM, 30 minutes later cisplatin 20 μM for 24 h, average of three experiments",88.8%
same,viability at 0.1 µM,"UB/OC-1 cells [2]; read-out: Cell Viability Avg., NPD1 100 nM, 30 minutes later cisplatin 20 μM for 24 h, average of three experiments",89.2%
same,viability at 0.001 µM,"UB/OC-1 cells [2]; read-out: Set I Cell Viability, NPD1 1 nM, 30 minutes later cisplatin 20 μM for 24 h",85%
same,viability at 0.01 µM,"UB/OC-1 cells [2]; read-out: Set I Cell Viability, NPD1 10 nM, 30 minutes later cisplatin 20 μM for 24 h",84%
same,viability at 0.1 µM,"UB/OC-1 cells [2]; read-out: Set I Cell Viability, NPD1 100 nM, 30 minutes later cisplatin 20 μM for 24 h",90%
same,viability at 0.001 µM,"UB/OC-1 cells [2]; read-out: Set II Cell Viability, NPD1 1 nM, 30 minutes later cisplatin 20 μM for 24 h",83%
same,viability at 0.01 µM,"UB/OC-1 cells [2]; read-out: Set II Cell Viability, NPD1 10 nM, 30 minutes later cisplatin 20 μM for 24 h",86%
same,viability at 0.1 µM,"UB/OC-1 cells [2]; read-out: Set II Cell Viability, NPD1 100 nM, 30 minutes later cisplatin 20 μM for 24 h",80%
same,viability at 0.001 µM,"UB/OC-1 cells [2]; read-out: Set III Cell Viability, NPD1 1 nM, 30 minutes later cisplatin 20 μM for 24 h",94.9%
same,viability at 0.01 µM,"UB/OC-1 cells [2]; read-out: Set III Cell Viability, NPD1 10 nM, 30 minutes later cisplatin 20 μM for 24 h",96.5%
same,viability at 0.1 µM,"UB/OC-1 cells [2]; read-out: Set III Cell Viability, NPD1 100 nM, 30 minutes later cisplatin 20 μM for 24 h",97.6%
same,cell survival,UB/OC-1 cells [2]; NPD1 treatment in cisplatin-induced damaged cells,over 96%
same,TNFα expression (staining),TNFα; [9],decrease
same,ROS staining,"[3]; NPD1 1 nM and 10 nM pre-treatment 30 minutes, then cisplatin 2.5 μM 30 minutes",decreased ROS staining
same,ROS staining,"[3]; NPD1 alone, no cisplatin",very little or no ROS staining
same,cell viability,"UB/OC-1 cells [4]; NPD1 1 nM-100 nM with cisplatin 20 μM, percent relative to vehicle-treated cells",over 95%
same,cell viability,"UB/OC-1 cells [4]; NPD1 at all tested concentrations (1 pM-100 nM) with cisplatin 20 μM, percent relative to vehicle-treated cells",over 80%
same,NOX3 expression (staining),NOX3; [5],significant decrease
same,TRPV-1 expression (staining),TRPV-1; [9],decrease
"N.N.[Cl][Pt][Cl] [cisplatin, reference compound]",iNOS staining,iNOS; [10],increased staining
same,TNFα staining,TNFα; [10],increased staining
same,ROS staining,"[3]; cisplatin 2.5 μM alone, 30 minutes",ROS staining in the cytoplasm of the cell
same,cell viability,UB/OC-1 cells [4]; cisplatin 20 μM alone,reduced cell viability
same,NOX3 staining,NOX3; [10],increased staining
same,TRPV-1 staining,TRPV-1; [10],increased staining
